Series [1] has as its system murine preadipocyte line (3T3-L1). Nature of the series: Assay of intraadipocyte cAMP increasing activity using murine preadipocyte line (3T3-L1) (Test Example 3, compounds of the Examples). Format: cell-based. Conditions: Table 14. How it is done:
The intraadipocyte cAMP concentration-increasing activity of the above compound (I) was determined in an assay system using murine preadipocyte line 3T3-L1. Thus, 3T3-L1 preadipocytes were seeded onto a 96-well microtiter plate (10,000 cells/well) and cultured for 5-6 days until a confluent growth was formed. Thereafter, the adipocytes were further cultured for 72 hours. The test compound (I) (10^−5M, 10^−6M, 10^−7M, 10^−8M, and 10^−9M) was then added and the plate was allowed to sit at 37° C. for 40 minutes. The cells were washed with 3 portions of phosphate buffer at 4° C. (100 μl/well). Then, 0.1 N hydrochloric acid was added and the cells were denatured at 95° C. for 10 minutes. From each well, 25 μl was aspirated and dissolved in 75 μl of the assay a buffer included in Cyclic AMP Enzyme Immunoassay Kit (Kayman Chemical Company, USA). Using a 50 μl portion as the sample, cAMP was assayed using the above-mentioned Kit. Thus, using a 96-well microtiter plate precoated with anti-rabbit IgG mouse antibody, the above sample (50 μl) as well as the Cyclic AMP Tracer (50 μl) and Cyclic AMP Rabbit Antibody (50 μl) from the Kit were added and the plate was incubated at room temperature for 18 hours. After asperation, the plate was washed with 4 portions of the wash buffer (400 μl/well). Then, 200 μl of the color reagent included in the Kit was added to each well and the plate was incubated at room temperature with'shaking for 60 minutes. After completion of the reaction, the absorbance was measured at 405 nm to quantitate the cAMP.
Each value is the mean result of 4 experiments. The test for statistical significance against the CAMP concentration of the control experiment (the test compound not added) was carried out by the known ANOVA. (* p<05 vs. control)
Using the compounds obtained in Examples 1 through 130, as well as their salts, their intraadipocyte cAMP increasing activities were assayed by the same procedure as in Test Example 1.

A short description of series [2]: Assay of reducing activity against weight gain of mice. The format is in vivo, Male C57BL db/db mice. The procedure: Male C57BL db/db mice (CLEA Japan Inc., 10 weeks old) was pretreated for 7 days, with solid feed (CLEA Japan Inc., CE-2). After acclimatization, 0.3 mg/kg or 1.0 mg/kg of the compound which, was obtained in Example 23, was oraly administrated for 6 weeks. Body weight was measured after the final administration. After the measurement, total blood was successively drawn from the orbital vain, and the visceral fat was collected and its weight was measured. Statistics analysis was carried out with Dunnett anlalysis.

A short description of series [3]: Assay of thermogenic activity in mice (Test Example 4). Format: in vivo, male C57BL db/db mice. The note with it: 1 mg/kg orally for 6 days; 24 hours-average regional temperature after the final administration; N=6. How it is done:
The telethermometer (VltaView™, Mini-Mitter Co., Inc., USA) was inplanted subcutaneously border on the scapulae of male C57BL db/db mice (CLEA Japan Inc., N=6) anesthetized with ether. After 7 days acclimatization, 1 mg/kg of the compound which was obtained in Example 23, was orally administrated for 6 days. The 24 hours-average regional temperature after the final administration was measured. The control was administrated 0.5% methylcellulose solution.

The mark [4] stands for this setting: concentration of test compound 10^−5M.
The mark [5] stands for this setting: concentration of test compound 10^−6M.
Setting [6] is: concentration of test compound 10^−7M.
[7] abbreviates: concentration of test compound 10^−8M.
Where [8] appears, read: concentration of test compound 10^−9M.
The mark [9] stands for this setting: second line of Example 23, dose printed 0.3 mg/kg, orally for 6 weeks.

SMILES strings stand for the structures. Counter-ions that a name gives are not always drawn. Marks after values point to notes of the source that are not given here.

Consider six compounds from US6534496B1, “Thermogenic composition and benzazepine thermogenics” (Takeda Chemical Industries, Inc., priority 1997, dated 2003).

The melting point is the temperature of the solid-liquid transition.

For the compound `Cc1ccccc1CN1CCc2ccc(C(=O)CCCC3CCN(Cc4cccc(Cl)c4)CC3)cc2CC1` [Example 130], the cAMP in series [1] (setting [4]) is 430.6* pmol/ml; in series [1] (setting [5]), 23.5* pmol/ml; in series [1] (setting [6]), 5.7* pmol/ml; in series [1] (setting [7]) it was 4.5 pmol/mL; in series [1] (setting [8]), 3.4 pmol/mL.

Regarding `Cc1ccccc1CN1CCc2ccc(C(=O)CCCC3CCN(Cc4ccccc4C)CC3)cc2CC1` [Example 127, 4-[1-[(2-Methylphenyl)methyl]-4-piperidinyl]-1-[3-[(2-methylphenyl)methyl]-2,3,4,5-tetrahydro-1H-3-benzazepin-7-yl]-1-butanone Dihydrochloride], the cAMP in series [1] (setting [4]) was 554.0* pmol/ml; in series [1] (setting [5]) it was 100.0* pmol/ml; in series [1] (setting [6]), 10.1* pmol/ml; in series [1] (setting [7]) it was 4.7 pmol/mL; in series [1] (setting [8]), 3.6 pmol/mL.

As for `Cc1ccccc1CN1CCC(CCCC(=O)c2ccc3c(c2)CCN(Cc2ccc(F)cc2F)CC3)CC1` (as salt: hydrochloride), the melting point was 208 to 210 °C.

In the case of `O=C(CCC1CCN(Cc2ccccc2Cl)CC1)c1ccc2c(c1)CN(Cc1ccc(F)cc1)CCO2` (as salt: hydrochloride), the melting point fell in the range of 227 to 229 °C.

`Cc1ccccc1CN1CCc2ccc(C(=O)CCCC3CCN(Cc4ccc(F)cc4)CC3)cc2CC1.Cl.Cl` gave a melting point of 197 to 200 °C.

On to `CC(=O)N1CCC(CCC(=O)c2ccc3c(c2)CCN(Cc2ccccc2)CC3)CC1.Cl` [Example 23, 3-(1-Acetyl-4-piperidinyl)-1-[3-(phenylmethyl)-2,3,4,5-tetrahydro-1H-3-benzazepin-7-yl]-1-propanone Hydrochloride], for which the “Amount of visceral fat (average ± S.E.)” value in series [2] (0.3 mg/kg orally for 6 weeks) was determined as 5.47 ± 0.36 g; in series [2] (1.0 mg/kg orally for 6 weeks) it was 5.13 ± 0.39 g. Besides, the “Body weight, ending date of administration (average ± S.E.)” value in series [2] (0.3 mg/kg orally for 6 weeks) is on record as 40.87 ± 1.57 g; in series [2] (setting [9]) it was 39.75 ± 1.55 g. The “Body weight, starting date of administration (average ± S.E.)” value in series [2] (0.3 mg/kg orally for 6 weeks) is listed as 40.21 ± 0.48 g; in series [2] (setting [9]), 40.40 ± 0.69 g. Further, the Regional temperature in series [3] turned out to be 35.54 °C.
